Laboratory results reported in patent US20180327367A1, “MACROCYCLIC BROAD SPECTRUM ANTIBIOTICS” (priority 2015, published 2018).
≈ marks a conversion by molar mass, not a printed value. Like-named read-outs stand apart in the source and are kept apart here.

Columns and labels:
[1] = tested on: Methicillin Resistant Staphylococcus aureus strain USA 300, NRS384; assay: Minimum inhibitory concentration, broth micro-dilution (CLSI), S. aureus; format: cell-based; conditions: Staphylococcus aureus, MRSA / NRS 384 / USA300, 22 h, 35° C., 22 hours
In short: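 Colonies grown 20 hours at 35° C were suspended in cation-adjusted Mueller Hinton Broth with 0.002% Tween-80. Cells were then added to 2-fold compound dilutions starting at 4 or 0.5 μg/mL, at OD600 0.0005.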

[2] = tested on: Escherichia coli ATCC 25922; assay: Minimum inhibitory concentration, broth micro-dilution (CLSI), E. coli; format: cell-based; conditions: Escherichia coli, ATCC25922, 22 h, 35° C., 22 hours
[3] = tested on: Escherichia coli MC4100 harboring the IMP4213 (E. coli IMP); assay: microbe, parasite or virus in culture; format: cell-based; conditions: Escherichia coli, 22 h, read-out: MIC (μg/mL) E. coli IMP, E. coli MC4100 IMP4213, increased outer-membrane permeability; 35° C., 22 hours
In short: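 Broth micro-dilution per CLSI in cation-adjusted Mueller Hinton Broth with 0.002% Tween-80; E. coli MC4100 carries IMP4213, raising outer-membrane permeability. Compounds tested as 2-fold serial dilutions (10 concentrations) from 4 μg/mL (protocol 2) or 0.5 μg/mL (protocol 3); inoculum OD600 0.0005, 35° C for 22 hours.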

[4] = target: T1, SpsB (Staphylococcus aureus signal peptidase) (Staphylococcus aureus, UniProt P0A070); assay: cell-based; format: biochemical; conditions: SpsB IC50, whole-cell S. aureus (USA300 background, overexpressing SpsB) as SpsB source; fluorogenic peptide substrate, kinetic read 30 min
T1 construct: This assay uses a suspension of Staphylococcus aureus cells as a source of SpsB instead of recombinant SpsB protein; endogenous in cells; host or cells: S. aureus, USA300 background, overexpressing SpsB (whole-cell suspension from frozen pellets)
In short: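 Whole S. aureus cells (USA300, overexpressing SpsB) in PBS with MgCl2, CaCl2 and 0.1% Tween-80 served as enzyme source, mixed with 20 μM stock of (Dabcyl)βAla-KPAKAAE(Edans) substrate before use. Fluorescence (ex 340/em 490 nm) read kinetically over 30 min. IC50 from reaction rate versus 11-point inhibitor concentration.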

[5] = MRSA USA 300 NRS384, read-out: MIC (μg/mL) S. aureus
[6] = E. coli ATCC 25922, read-out: MIC (μg/mL) E. coli

T1 sequence (P0A070 whole entry): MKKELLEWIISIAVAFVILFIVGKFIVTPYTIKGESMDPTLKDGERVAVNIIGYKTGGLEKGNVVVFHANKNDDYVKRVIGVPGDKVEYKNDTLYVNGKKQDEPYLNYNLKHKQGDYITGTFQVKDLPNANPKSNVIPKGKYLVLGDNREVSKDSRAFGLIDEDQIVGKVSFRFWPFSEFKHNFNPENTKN

| Structure (SMILES) | MIC [1, 5] [µg/mL] | MIC [2, 6] [µg/mL] | MIC [3] [µg/mL] | IC50 [4] [nM] | MIC ([1]; read-out: MIC (μg/mL) S. aureus, MRSA USA 300 NRS384) [µg/mL] | MIC ([2]; read-out: MIC (μg/mL) E. coli, E. coli ATCC 25922) [µg/mL] |
| --- | --- | --- | --- | --- | --- | --- |
| CCCCCCCCc1ccc(C(=O)N[C@@H](CCN)C(=O)N(C)[C@@H]2C(=O)N[C@@H](C)C(=O)N[C@H](C(=O)NCC#N)Cc3ccc(OCCN)c(c3)-c3cc2ccc3OCCN)c(C(F)F)c1 [Compound 221] | 0.063 (≈ 0.0697 µM) | 0.19 (≈ 0.21 µM) | 0.023 (≈ 0.0254 µM) | 1.3 | – | – |
| CCCCCCCC(=O)N[C@@H](CCN)C(=O)N(C)[C@@H]1C(=O)N[C@@H](C)C(=O)N[C@H](C(=O)NCC#N)Cc2ccc(OCCN)c(c2)-c2cc1ccc2OCCN [Compound 107] | 1 (≈ 1.31 µM) | 32 (≈ 41.9 µM) | 0.38 (≈ 0.497 µM) | 4 | – | – |
| Cc1cc(OCCC(C)(C)C)ccc1C(=O)N[C@@H](CCN)C(=O)N(C)[C@@H]1C(=O)N[C@@H](C)C(=O)N[C@H](C(=O)NCC#N)Cc2ccc(OCCN)c(c2)-c2cc1ccc2OCCN [Compound 277] | 0.063 (≈ 0.0736 µM) | 1 (≈ 1.17 µM) | 0.012 (≈ 0.014 µM) | 1.1 | – | – |
| CCCCCCCCc1ccc(C(=O)N[C@@H](CCN)C(=O)N(C)[C@@H]2C(=O)N[C@@H](C)C(=O)N[C@H](C(=O)NCC#N)Cc3ccc(OCCN)c(c3)-c3cc2ccc3OCCN)c(OCC(N)=O)c1 [Compound 407] | 0.047 (≈ 0.0507 µM) | 4 (≈ 4.31 µM) | 0.047 (≈ 0.0507 µM) | 1.1 | – | – |
| CCCCc1ccc(C(=O)N[C@@H](CCC)C(=O)N[C@@H](CCN)C(=O)N(C)[C@@H]2C(=O)N[C@@H](C)C(=O)N[C@H](C(=O)NCC#N)Cc3ccc(OCCN)c(c3)-c3cc2ccc3OCCN)c(C)c1 [Compound 355] | – | – | 0.031 (≈ 0.034 µM) | 1.1 | 0.13 (≈ 0.143 µM) | 4 (≈ 4.39 µM) |
| CCCCCCCOc1cc(C)c(C(=O)N[C@@H](CCN)C(=O)N(C)[C@@H]2C(=O)N[C@@H](C)C(=O)N[C@H](C(=O)NCC#N)Cc3ccc(OCCN)c(c3)-c3cc2ccc3OCCN)c(C)c1 [Compound 292] | 0.047 (≈ 0.0532 µM) | 0.38 (≈ 0.43 µM) | 0.0078 (≈ 0.00882 µM) | 1.2 | – | – |
| CCCCCCCCCC(=O)NCCC(=O)N[C@@H](CCN)C(=O)N(C)[C@@H]1C(=O)N[C@@H](C)C(=O)N[C@H](C(=O)NCC#N)Cc2ccc(OCCN)c(c2)-c2cc1ccc2OCCN [Compound 367] | 0.094 (≈ 0.109 µM) | 12 (≈ 13.9 µM) | 0.13 (≈ 0.151 µM) | 0.88 | – | – |
| CCCCCCCCCCNCCC(=O)N(C)[C@@H]1C(=O)N[C@@H](C)C(=O)N[C@H](C(=O)NCC#N)Cc2ccc(OCCN)c(c2)-c2cc1ccc2OCCN [Compound 131] | 0.047 (≈ 0.0628 µM) | 64 (≈ 85.5 µM) | 1.8 (≈ 2.4 µM) | 0.74 | – | – |
| CCCCCCCCCCCC(=O)N[C@@H](CO)C(=O)N(C)[C@@H]1C(=O)N[C@@H](C)C(=O)N[C@H](C(=O)N[C@H](C#N)C2CC2)Cc2ccc(OCCN)c(c2)-c2cc1ccc2OCCN [Compound 420] | 4 (≈ 4.72 µM) | 24 (≈ 28.3 µM) | 1 (≈ 1.18 µM) | 8.4 | – | – |
| CCCCCCCc1ccc(C(=O)N[C@@H](CCN)C(=O)N(C)[C@@H]2C(=O)N[C@@H](C)C(=O)N[C@H](C(=O)NCC#N)Cc3ccc(OCCN)c(c3)-c3cc2ccc3OCCN)c(C(F)(F)F)c1 [Compound 191] | 0.031 (≈ 0.0341 µM) | 0.75 (≈ 0.826 µM) | 0.016 (≈ 0.0176 µM) | 0.62 | – | – |
| CCCCCCCCCNC(=O)CCC(=O)N[C@@H](CCN)C(=O)N(C)[C@@H]1C(=O)N[C@@H](C)C(=O)N[C@H](C(=O)NCC#N)Cc2ccc(OCCN)c(c2)-c2cc1ccc2OCCN [Compound 369] | 0.063 (≈ 0.073 µM) | 4 (≈ 4.63 µM) | 0.063 (≈ 0.073 µM) | 0.47 | – | – |
| CCCCCCCCCCCCCC(=O)N[C@@H](CCN)C(=O)N(C)[C@@H]1C(=O)N[C@@H](C)C(=O)N[C@H](C(=O)NCC#N)Cc2ccc(OC)c(c2)-c2cc1ccc2OCCN [Compound 326] | 0.19 (≈ 0.232 µM) | 1 (≈ 1.22 µM) | 0.016 (≈ 0.0195 µM) | 0.98 | – | – |
| CCCCCCCCc1ccc(C(=O)N[C@@H](CCN)C(=O)N(C)[C@@H]2C(=O)N[C@@H](C)C(=O)N[C@H](C(=O)NCC#N)Cc3ccc(OCCN)c(c3)-c3cc2ccc3OCCN)c(N)c1 [Compound 223] | 0.031 (≈ 0.0357 µM) | 0.25 (≈ 0.288 µM) | 0.016 (≈ 0.0184 µM) | 1.5 | – | – |
